Experimental data from patent publication US12018278B2, “Methods for chemically induced lineage reprogramming” (BeiHao Stem Cell and Regenerative Medicine Research …, priority 2017, dated 2024).

What was measured:
[1] = test system: induced TauEGFP-positive cells; test: Whole-cell patch clamp recordings on induced TauEGFP-positive neurons; format: cell-based, mouse; conditions: for spontaneous excitatory postsynaptic currents (EPSCs): 20 μM CNQX plus 50 μM AP5, after co-culturing with primary astrocytes
Protocol: Whole-cell patch clamp recordings were performed as previously described (Li et al., Cell Stem Cell, 17:195-203 (2015)). The artificial cerebrospinal fluid extracellular solution contained (in mM) 141 NaCl, 2.5 KCl, 1.3 MgCl2, 2.4 CaCl2, 1.25 NaH2PO4, 10 glucose and 10 HEPES, the pH was adjusted to 7.4 with NaOH. Patch pipettes were pulled (˜5 MΩ tip resistance) with a P97 micropipette puller (Sutter Instruments) filled with internal pipette solution contained (in mM) 140 potassium gluconate, 1 CaCl2, 10 EGTA, 2 MgCl2, 5 Na2ATP, and 10 HEPES, the pH was adjusted to 7.4 with KOH. Patch-clamp recordings were taken using an EPC-10 amplifier (HEKA) with PatchMaster. Cell membrane potentials were held typically at −80 mV and depolarized to test potentials from −80 to +80 mV in 10 mV increments to record the sodium and potassium currents. The sample was 20 μs and sweep intervals were 2 s. For current-clamp recordings, a hyperpolarized current was injected into chemical neurons to membrane potentials around −70 mV. Action potentials were elicited by step-depolarized currents with sweep intervals of 3 s. The cells were held at 0 pA to record the resting membrane potentials. In current-clamp mode, the sample frequency was 25 kHz. Induced neurons identified by GFP were co-cultured with mouse primary astrocytes to record spontaneous excitatory postsynaptic currents (sEPSCs) or spontaneous inhibitory postsynaptic currents (sIPSCs). The induced neurons were held at a holding potential of −70 mV (close to the reversal potential of chloride) and 0 mV, respectively. The data were continuously digitized at 20 kHz. For neurotransmitter response, Glutamate (100 μM, Sigma-Aldrich) was dissolved in ACSF, loaded into a pipette, and puffed onto hciN cells using a picosprizer III (Parker Instrument) with 10 psi and […]. All recordings were conducted at room temperature.

[2] = test system: mouse adult lung fibroblasts (MAFs); test: Induction of XEN-like cells from adult fibroblasts; format: cell-based; conditions: vitamin C (50 μg/ml) and CH55 (1 μM) added together to stage 1 medium; 12 days' induction
Protocol: (§1) Stage 1 culture medium preparation: KnockOut DMEM (Invitrogen) supplemented with 10% KSR (Invitrogen), 10% FBS (Pan-Biotech), 1% GlutaMAX™-I (Invitrogen), 1% NEAA (Invitrogen), 0.055 mM β-ME (Sigma), 1% penicillin-streptomycin (Invitrogen), 100 ng/ml bFGF (Origene) containing the small-molecule cocktail: 0.5 mM VPA, 2-4 μM TD114-2 or 20 μM CHIR, 10 μM 616452, 10 μM Tranylcypromine, 10-50 μM Forskolin, 0.05 μM AM580 and 5 μM EPZ004777 (VT6TFAE or VC6TFAE).

passaged XEN-like cells = test: Toxicity to passaged XEN-like cells in stage 2 neural induction medium; format: cell-based, mouse; conditions: 50 μM
Protocol: For neural induction from passaged XEN-like cells, cells were plated at 50,000-100,000 cells per well of a 6-well plate (with gelatin-coated) in stage 1 medium (day 0). Until passaged cells become 70-80% confluence on day2 or day3, switch the XEN-like cells into stage 2 neural induction medium. After 12-20 days, TauEGFP-positive colonies emerged. Considering that FSK used at high concentration 50 μM was toxic to passaged XEN-like cells at stage 2, a concentration of 10-20 μM in neural induction culture medium on passaged XEN-like cells is preferred.

CeXEN cells = test: Toxicity to CeXEN cells in stage 2 neural induction medium; format: cell-based, mouse; conditions: 50 μM
Protocol: CeXEN (chemically-derived eXEN) cells with TauEGFP reporter were derived from E3.5 blastocysts using stage 1 culture medium as previously reported (Zhao et al., Cell, 163:1678-1691 (2015)). Medium was changed every day and the cells were passaged at 1:20 to 1:30 every 3 days.
1. For chemical induction, CeXEN cells were plated at 50,000-100,000 cells per well of a 6-well plate (with gelatin-coated) in stage 1 medium (day 0).
2. On day2 or day3 until 70-80% confluence, cells were switched into stage 2 neural induction culture medium for 12-20 days and TauEGFP-positive cells were generated.
A relatively low initial cell density is beneficial for lineage induction from passaged CeXEN cells since the high proliferation rate of CeXEN cells. Considering that FSK used at high concentration 50 μM was toxic to CeXEN cells at stage 2, a concentration of 10-20 μM in neural induction culture medium on CeXEN cells is preferred.

XEN-like cells [3] = test: Stage 2 neural induction of TauEGFP-positive cells from XEN-like cells (FACS); format: cell-based, mouse; conditions: 0.1 μM LDN193189 and 5 μM SB431542 added to FCD; not essential to induce neurons
Protocol: On day 12, cells were switched into stage 2 neural specification medium. After 8-12 days induction by the stage 2 culture medium, TauEGFP-positive colonies were generated. The TauEGFP-positive colonies were further re-plated to co-culture with primary astrocytes or primary neurons for maturation.
The induced efficiency of the TauEGFP-positive cells was estimated using a FACS Calibur flow cytometer (Becton Dickinson), and the flow cytometry data were analyzed using FlowJo. For intracellular flow cytometry analyses, single-cell suspensions were stained with antibodies and analyzed using a BD FACSCalibur.

fibroblasts = test: Stage 1 chemical induction of XEN-like primary colonies from fibroblasts; format: cell-based, mouse; conditions: replacing CHIR99021 with TD114-2 in the seven-compound cocktail; XEN-like state not altered
Protocol: as §1, with “VC6TFAE). For mouse adult lung fibroblasts (MAFs) induction, 1 μM CH55 and 50 μg/ml Vitamin C (VC) were added enhance the induction efficiency.” for “VC6TFAE).”
TauEGFP fibroblasts were prepared as previously reported (Li et al., Cell Stem Cell, 17:195-203 (2015)). Fibroblasts were seeded at a density of 30,000-50,000 cells per well of a 6-well plate or 300,000 cells per 100 mm dish (day −1) (Fibroblast medium−DMEM basal medium+10% FBS++beta-Me(0.055 mM)+1% PS). The culture plates or dishes were precoated with 0.1% gelatin.
The medium was changed to Stage 1 culture medium (Day 0). For stage 1 chemical reprogramming, cells were induced by the culture medium containing 0.5 mM VPA, 2-4 μM TD114-2 or 20 μM CHIR, 10 μM 616452, 10 μM Tranylcypromine, 10-50 μM Forskolin, 0.05 μM AM580 and 5 μM EPZ004777(VT6TFAE or VC6TFAE)) for 12 days. Culture medium was refreshed every 4 days during the inducing period. XEN-like colonies were formed at about day 6-8.

XEN-like colonies = test: Long-term passaging and expansion of XEN-like cells; format: cell-based, mouse; conditions: TD114-2 based culture condition; ratio 1:20-30 every 3-4 days
Description: Day 12 induced)(EN-like colonies (P0) were trypsinized from whole well and re-plated onto gelatin-coated culture plates at a ratio of 1:10-20 in stage 1 medium for the first passage. After the)(EN-like cells at Passage 1 become confluence, passage the cells at a ratio of 1:20-30 every 3-4 days in stage 1 medium. The XEN-like cells can be long term expanded at stage 1 medium for more than 20 passages with lineage specifying potentials.
For a single primary XEN-like colony passaging, feeder layers of mitomycin C-treated MEFs are needed. Pick up the a single primary XEN-like colony with 1 ml syringe, trypsinize for 5 min, and neutralize with stage 1 culture medium, then pipette up and down to obtain a single-cell suspension. Seed the cell suspension on feeder layers with stage 1 culture medium for further expansion. The subsequent passaging of XEN-like cells can be feeder-free.

XEN-like cells [4] = test: qRT-PCR of neural, fibroblast and XEN genes in the absence of single Stage 2 medium components; format: cell-based, mouse; conditions: genes examined in the absence of the factor; FIG. 1F

## NC(CCCP(=O)(O)O)C(=O)O (stereo not shown) [AP5, 2-amino-5-phosphonovaleric acid]
[1]
  spontaneous excitatory postsynaptic currents (EPSCs): blocked

## O=C1O[C@H]([C@@H](O)CO)C(O)=C1O [vitamin C]
[2]
  efficiency of generating XEN-like cells from adult fibroblasts: significantly improved

## N#Cc1cc2[nH]c(=O)c(=O)[nH]c2cc1[N+](=O)[O-] [CNQX, 6-cyano-1007-nitroquinoxaline-2,3-dione]
[1]
  spontaneous excitatory postsynaptic currents (EPSCs): blocked

## N[C@@H](CCC(=O)O)C(=O)O [Glutamate]
[1]; 100 μM, focal application
  membrane currents on focal application: induction of inward membrane currents

## CC(C)(C)c1cc(C(=O)/C=C/c2ccc(C(=O)O)cc2)cc(C(C)(C)C)c1 [CH55]
[2]
  efficiency of generating XEN-like cells from adult fibroblasts: significantly improved

## C=C[C@@]1(C)CC(=O)[C@]2(O)[C@@]3(C)[C@@H](O)CCC(C)(C)[C@@H]3[C@H](O)[C@H](OC(C)=O)[C@@]2(C)O1 [Forskolin]
Passaged XEN-like cells
  toxicity to passaged XEN-like cells at stage 2: toxic
CeXEN cells
  toxicity to CeXEN cells at stage 2: toxic

## NC1=N[C@H](O)[C@H]2[C@H]3O[C@]4(O)O[C@@H]([C@@H](O)[C@@]2(N1)[C@@H]4O)[C@]3(O)CO [TTX, tetrodotoxin]
[1]
  sodium currents (inward currents, voltage-clamp): blocked

## c1ccc2c(-c3cnn4cc(-c5ccc(N6CCNCC6)cc5)cnc34)ccnc2c1 [LDN193189, 4-(6-(4-(piperazin-1-yl)phenyl)pyrazolo[1,5-a]pyrimidin-3-yl)quinolone]
XEN-like cells [3]
  effect on neuron induction efficiency in stage 2 medium: favorable to enhance the induction efficiency

## NC(=O)c1ccc(-c2nc(-c3ccc4c(c3)OCO4)c(-c3ccccn3)[nH]2)cc1 [SB431542, 4-[4-(1,3-benzodioxol-5-yl)-5-(2-pyridinyl)-1H-imidazol-2-yl]benzamide]
XEN-like cells [3]
  effect on neuron induction efficiency in stage 2 medium: favorable to enhance the induction efficiency

## O=C1NC(=O)C2=C1c1cn(c3ccccc13)CCOCCOCCOCCOCCn1cc2c2ccccc21 [TD114-2, 10,11,13,14,16,17,19,20,22,23-decahydro-9,4:24, 29-dimetheno-1H-dibenzo[n,t] pyrrolo[3,4-q] [1,4,7,10,13,22]-tetraoxadiazacyclotetracosine-31,33(32H) dione]
fibroblasts
  yield of the primary colonies, enhancement: 3 fold
XEN-like colonies
  long term expansion of XEN-like colonies, passages tested: at least 20 passages

B1: GDNF: growth factor in Stage 2 neural induction medium, 20 ng/ml (protein, UniProt P39905 78-211, looked up)
Glial cell line-derived …: SPDKQMAVLPRRERNRQAAAANPENSRGKGRRGQRGKNRGCVLTAIHLNVTDLGLGYETKEELIFRYCSGSCDAAETTYDKILKNLSRNRRLVSDKVGQACCRPIAFDDDLSFLDDNLVYHILRKHSAKRCGCI
XEN-like cells [4]
  role of the stage 2 medium component for neural-, fibroblast- and XEN-specific gene expression: important for inducing neuronal mater and functional genes
